Molecules are shown by their SMILES.

The values that follow come from patent US9926281B2 (priority 2014, dated 2018).

One assay concerns the target human ADAMTS-5 (Homo sapiens (Human), UniProt Q9UNA0). Particulars: read-out: hADAMTS-5 potency IC50.
The target of another assay is human TACE (Homo sapiens (Human), UniProt P78536). To be noted: read-out: TACE potency IC50.
In another assay the target is rnADAMTS-5 (1-564-6H) (Rattus norvegicus, UniProt Q6TY19). Particulars: read-out: Rat ADAMTS-5 potency IC50.
A further assay has as its target human MMP13 (Homo sapiens (Human), UniProt P45452). To be noted: read-out: hMMP-13 potency IC50.

Sequence of human ADAMTS-5 (Q9UNA0 262-930): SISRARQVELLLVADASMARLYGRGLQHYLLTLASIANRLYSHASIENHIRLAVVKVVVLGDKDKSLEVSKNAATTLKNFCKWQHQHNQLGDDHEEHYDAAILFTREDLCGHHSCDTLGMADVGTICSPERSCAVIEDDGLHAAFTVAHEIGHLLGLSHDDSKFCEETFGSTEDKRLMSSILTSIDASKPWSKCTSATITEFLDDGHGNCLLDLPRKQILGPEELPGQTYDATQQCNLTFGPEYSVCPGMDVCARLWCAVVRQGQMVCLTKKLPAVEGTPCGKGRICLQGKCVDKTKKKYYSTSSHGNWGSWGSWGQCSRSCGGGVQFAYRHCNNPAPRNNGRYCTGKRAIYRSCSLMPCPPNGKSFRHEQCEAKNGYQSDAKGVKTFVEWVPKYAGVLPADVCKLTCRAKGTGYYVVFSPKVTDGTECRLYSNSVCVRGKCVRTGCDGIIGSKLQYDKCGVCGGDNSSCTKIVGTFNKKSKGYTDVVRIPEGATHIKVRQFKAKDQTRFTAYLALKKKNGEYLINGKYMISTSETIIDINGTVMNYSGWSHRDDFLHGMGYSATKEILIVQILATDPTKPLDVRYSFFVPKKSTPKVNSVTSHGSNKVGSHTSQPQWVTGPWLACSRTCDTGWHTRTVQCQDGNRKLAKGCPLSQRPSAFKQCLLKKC
Sequence of human TACE (P78536 whole entry, looked up, change not shown): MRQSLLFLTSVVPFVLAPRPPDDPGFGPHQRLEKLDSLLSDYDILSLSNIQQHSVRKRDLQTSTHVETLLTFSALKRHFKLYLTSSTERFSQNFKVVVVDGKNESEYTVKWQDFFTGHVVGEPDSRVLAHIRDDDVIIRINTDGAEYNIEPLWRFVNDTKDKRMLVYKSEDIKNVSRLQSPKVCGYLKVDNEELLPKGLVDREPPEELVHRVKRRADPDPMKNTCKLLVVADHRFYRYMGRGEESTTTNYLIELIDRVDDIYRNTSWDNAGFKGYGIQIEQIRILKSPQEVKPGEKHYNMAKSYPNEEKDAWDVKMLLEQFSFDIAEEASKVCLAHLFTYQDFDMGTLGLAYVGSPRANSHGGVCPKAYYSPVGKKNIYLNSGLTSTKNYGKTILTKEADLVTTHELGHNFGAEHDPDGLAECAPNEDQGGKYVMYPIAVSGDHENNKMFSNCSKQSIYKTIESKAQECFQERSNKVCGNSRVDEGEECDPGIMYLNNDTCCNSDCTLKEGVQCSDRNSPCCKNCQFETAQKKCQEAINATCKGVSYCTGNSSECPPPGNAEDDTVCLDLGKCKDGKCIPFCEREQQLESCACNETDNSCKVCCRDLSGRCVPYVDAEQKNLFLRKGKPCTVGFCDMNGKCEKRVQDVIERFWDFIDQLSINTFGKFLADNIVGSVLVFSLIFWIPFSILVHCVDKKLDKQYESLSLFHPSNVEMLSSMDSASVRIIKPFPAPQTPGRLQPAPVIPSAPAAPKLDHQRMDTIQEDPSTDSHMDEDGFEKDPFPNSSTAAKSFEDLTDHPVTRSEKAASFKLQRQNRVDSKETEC
Protocol for human ADAMTS-5: Finally, the fluorescence is read on the Envision (Perkin Elmer) after an incubation of 90 min at 37° C.
Protocol for human MMP13: Human MMP13 is preactivated by incubated the enzyme in the same buffer complemented with 1 mM freshly prepared p-Aminophenylmercuric acetate (AMPA) for 1 hour at 37° C.

Regarding `C[C@@H](C[C@@]1(C)NC(=O)NC1=O)C(=O)N1CCN(c2ccc(F)c(Cl)c2)[C@@H](C)C1` [Cpd 265], the IC50 (commonly the concentration at which inhibition is half-maximal) on human ADAMTS-5 was 18 nM; on human TACE, over 4000 nM; at rnADAMTS-5 (1-564-6H), 22 nM.

As for `O=C1NC(=O)C(CCC(=O)N2CCN(c3cccc(Cl)c3)CC2)(C2CC2)N1` (stereo not drawn) [compound 34, 5-[3-[4-(3-chlorophenyl)piperazin-1-yl]-3-oxo-propyl]-5-cyclopropyl-imidazolidine-2,4-dione], the IC50 on human TACE was over 4000 nM; at human MMP13, 3210 nM; on rnADAMTS-5 (1-564-6H) it was 41 nM.

On to `CC(C)C1(CCC(=O)N2CCN(c3cccc(Cl)c3)CC2)NC(=O)NC1=O` (stereo not drawn) [compound 53, 5-[3-[4-(3-chlorophenyl)piperazin-1-yl]-3-oxo-propyl]-5-isopropyl-imidazolidine-2,4-dione], for which the IC50 at human TACE is over 4000 nM; at human MMP13 it was over 20000 nM; on rnADAMTS-5 (1-564-6H), 179 nM.

Turning to `Cc1ccc(Cl)cc1N1CCN(C(=O)CCC2(c3ccc(Cl)cc3)NC(=O)NC2=O)CC1` (stereo not drawn) [compound 75, 5-[3-[4-(5-chloro-2-methyl-phenyl)piperazin-1-yl]-3-oxo-propyl]-5-(4-chlorophenyl)imidazolidine-2,4-dione], the IC50 is 550 nM on human TACE, over 20000 nM on human MMP13 and 141 nM at rnADAMTS-5 (1-564-6H).

As for `Cc1c(Cl)cccc1N1CCN(C(=O)CCC2(C3CC3)NC(=O)NC2=O)CC1` (stereo not drawn) [compound 98, 5-[3-[4-(3-chloro-2-methyl-phenyl)piperazin-1-yl]-3-oxo-propyl]-5-cyclopropyl-imidazolidine-2,4-dione], the results for the 50% inhibitory concentration (IC50) on human TACE, at human MMP13 and at rnADAMTS-5 (1-564-6H) were over 4000 nM, over 20000 nM and 82 nM, respectively.

For the compound `Cc1c(F)cccc1N1CCN(C(=O)CCC2(C3CC3)NC(=O)NC2=O)CC1` (stereo not drawn) [compound 99, 5-cyclopropyl-5-[3-[4-(3-fluoro-2-methyl-phenyl)piperazin-1-yl]-3-oxo-propyl]imidazolidine-2,4-dione], the results for the IC50 at human TACE, at human MMP13 and at rnADAMTS-5 (1-564-6H) were over 14700 nM, over 20000 nM and 116 nM, respectively.

Consider `Cc1c(Cl)cccc1N1CCN(C(=O)CCC2(c3cccnc3)NC(=O)NC2=O)CC1` (stereo not drawn) [compound 102, 5-[3-[4-(3-chloro-2-methyl-phenyl)piperazin-1-yl]-3-oxo-propyl]-5-(3-pyridyl)imidazolidine-2,4-dione], for which the IC50 on human TACE was 3400 nM; on human MMP13, over 20000 nM; on rnADAMTS-5 (1-564-6H), 94 nM.

Turning to `Cc1c(Cl)cc(Cl)cc1N1CCN(C(=O)CCC2(C)NC(=O)NC2=O)C[C@@H]1C` (stereo partly drawn) [compound 178, 5-[3-[(3S)-4-(3,5-dichloro-2-methyl-phenyl)-3-methyl-piperazin-1-yl]-3-oxo-propyl]-5-methyl-imidazolidine-2,4-dione], the IC50 was 577 nM at human ADAMTS-5 and 344 nM on rnADAMTS-5 (1-564-6H).

Regarding `O=C1NC(=O)C(CCC(=O)N2CCN(c3cccc(Cl)c3)CC2)(CNCc2ccccc2)N1` (stereo not drawn) [compound 184, 5-[(benzylamino)methyl]-5-[3-[4-(3-chlorophenyl)piperazin-1-yl]-3-oxo-propyl]imidazolidine-2,4-dione], the results for the IC50 on human ADAMTS-5 and on rnADAMTS-5 (1-564-6H) were 272 nM and 280 nM, respectively.

In the case of `N#Cc1cccc(N2CCN(C(=O)CCC3(C4CC4)NC(=O)NC3=O)CC2)c1` (stereo not drawn) [compound 195, 3-[4-[3-(4-cyclopropyl-2,5-dioxo-imidazolidin-4-yl)propanoyl]piperazin-1-yl]benzonitrile], the IC50 at human ADAMTS-5 came out at 318 nM; on rnADAMTS-5 (1-564-6H), 262 nM.

Regarding `COC(CC1(C)NC(=O)NC1=O)C(=O)N1CCN(c2cccc(F)c2)[C@@H](C)C1` (stereo partly drawn) [compound 294, 5-[3-[(3S)-4-(3-fluorophenyl)-3-methyl-piperazin-1-yl]-2-methoxy-3-oxo-propyl]-5-methyl-imidazolidine-2,4-dione], the IC50 on human ADAMTS-5 was 134 nM; on human TACE it was over 20000 nM; at rnADAMTS-5 (1-564-6H), 128 nM.

With `C[C@H]1CN(C(=O)CC[C@@]2(C3CC3)NC(=O)NC2=O)CCN1c1ccc(Cl)c(Cl)c1` [compound 416, 5-cyclopropyl-5-(3-((S)-4-(3,4-dichlorophenyl)-3-methylpiperazin-1-yl)-3-oxopropyl)imidazolidine-2,4-dione], the IC50 is 12 nM at human ADAMTS-5, over 4000 nM on human TACE and 2880 nM at human MMP13.

Turning to `CC(CC1(C)NC(=O)NC1=O)C(=O)N1CCN(c2cc(F)cc(Cl)c2)[C@@H](C)C1` (stereo partly drawn) [compound 418, 5-(3-((S)-4-(3-chloro-5-fluorophenyl)-3-methylpiperazin-1-yl)-2-methyl-3-oxopropyl)-5-methylimidazolidine-2,4-dione], the IC50 was 33 nM on human ADAMTS-5, over 4000 nM at human TACE and over 4000 nM on human MMP13.

As to `CC(CC1(C)NC(=O)NC1=O)C(=O)N1CCN(c2cc(Cl)cc(Cl)c2)[C@@H](C)C1` (stereo partly drawn) [compound 420, 5-(3-((S)-4-(3,5-dichlorophenyl)-3-methylpiperazin-1-yl)-2-methyl-3-oxopropyl)-5-methylimidazolidine-2,4-dione], the IC50 on human ADAMTS-5 is 32 nM; at human TACE, 2980 nM; at human MMP13, over 14000 nM.

Consider `CC(CC1(C)NC(=O)NC1=O)C(=O)N1CCN(c2ccc(F)c(Cl)c2)[C@@H](C)C1` (stereo partly drawn) [compound 422, 5-(3-((S)-4-(3-chloro-4-fluorophenyl)-3-methylpiperazin-1-yl)-2-methyl-3-oxopropyl)-5-methylimidazolidine-2,4-dione], for which the IC50 on human ADAMTS-5 was 21 nM; at human TACE, over 4000 nM; on human MMP13, 2330 nM.

As to `Cc1c(Cl)cc(Cl)cc1N1CCN(C(=O)C(C)CC2(C)NC(=O)NC2=O)C[C@@H]1C` (stereo partly drawn) [compound 423, 5-(3-((S)-4-(3,5-dichloro-2-methylphenyl)-3-methylpiperazin-1-yl)-2-methyl-3-oxopropyl)-5-methylimidazolidine-2,4-dione], the IC50 on human ADAMTS-5 is 58 nM; at human TACE, 1470 nM; on human MMP13, over 20000 nM.

For the compound `CC1(CC(COCc2ccccc2)C(=O)N2CCN(c3cc(Cl)cc(Cl)c3)CC2)NC(=O)NC1=O` (stereo not drawn) [compound 424, 5-(2-(benzyloxymethyl)-3-(4-(3,5-dichlorophenyl)piperazin-1-yl)-3-oxopropyl)-5-methylimidazolidine-2,4-dione], the IC50 on human ADAMTS-5 is 53 nM; on human TACE, over 10800 nM; at human MMP13 it was over 20000 nM.

As for `CC1(CC(CO)C(=O)N2CCN(c3cc(Cl)cc(Cl)c3)CC2)NC(=O)NC1=O` (stereo not drawn) [compound 425, 5-(3-(4-(3,5-dichlorophenyl)piperazin-1-yl)-2-(hydroxymethyl)-3-oxopropyl)-5-methylimidazolidine-2,4-dione], the IC50 on human ADAMTS-5 is 18 nM; on human TACE it was 245 nM; at human MMP13, over 4000 nM.

Turning to `COCC1(CC(C)C(=O)N2CCN(c3cc(Cl)cc(Cl)c3)CC2)NC(=O)NC1=O` (stereo not drawn) [compound 427, 5-(3-(4-(3,5-dichlorophenyl)piperazin-1-yl)-2-methyl-3-oxopropyl)-5-(methoxymethyl)imidazolidine-2,4-dione], the IC50 was 20 nM at human ADAMTS-5, 337 nM at human TACE and over 4000 nM at human MMP13.

Consider `COCC1(CC(C)C(=O)N2CCN(c3cc(Cl)cc(Cl)c3)[C@@H](C)C2)NC(=O)NC1=O` (stereo partly drawn) [compound 429, 5-(3-((S)-4-(3,5-dichlorophenyl)-3-methylpiperazin-1-yl)-2-methyl-3-oxopropyl)-5-(methoxymethyl)imidazolidine-2,4-dione], for which the IC50 on human ADAMTS-5 was 53 nM; on human TACE, over 3980 nM; at human MMP13, over 20000 nM.

As for `COCC1(CC(C)C(=O)N2CCN(c3cccc(Cl)c3C)CC2)NC(=O)NC1=O` (stereo not drawn) [compound 433, 5-(3-(4-(3-chloro-2-methylphenyl)piperazin-1-yl)-2-methyl-3-oxopropyl)-5-(methoxymethyl)imidazolidine-2,4-dione], the IC50 at human ADAMTS-5 was 21 nM; on human TACE it was 1250 nM; at human MMP13, over 20000 nM.

Regarding `CC(CC1(c2ccccn2)NC(=O)NC1=O)C(=O)N1CCN(c2cc(Cl)cc(Cl)c2)CC1` (stereo not drawn) [compound 434, 5-(3-(4-(3,5-dichlorophenyl)piperazin-1-yl)-2-methyl-3-oxopropyl)-5-(pyridin-2-yl)imidazolidine-2,4-dione], the IC50 on human ADAMTS-5 is 20 nM; on human TACE, 106 nM; at human MMP13 it was 766 nM.

With `CCC(CC1(C)NC(=O)NC1=O)C(=O)N1CCN(c2cc(Cl)cc(Cl)c2)CC1` (stereo not drawn) [compound 435, 5-(2-(4-(3,5-dichlorophenyl)piperazine-1-carbonyl)butyl)-5-methylimidazolidine-2,4-dione], the values for the IC50 at human ADAMTS-5, at human TACE and at human MMP13 were 15 nM, 225 nM and 1220 nM, respectively.

Turning to `COCC(CC1(C)NC(=O)NC1=O)C(=O)N1CCN(c2cc(Cl)cc(Cl)c2)CC1` (stereo not drawn) [compound 436, 5-(3-(4-(3,5-dichlorophenyl)piperazin-1-yl)-2-(methoxymethyl)-3-oxopropyl)-5-methylimidazolidine-2,4-dione], the IC50 at human ADAMTS-5 was 22 nM; at human TACE, 368 nM; on human MMP13, over 4000 nM.

On to `CC(C)C(CC1(C)NC(=O)NC1=O)C(=O)N1CCN(c2cc(Cl)cc(Cl)c2)CC1` (stereo not drawn) [compound 438, 5-(2-(4-(3,5-dichlorophenyl)piperazine-1-carbonyl)-3-methylbutyl)-5-methylimidazolidine-2,4-dione], for which the IC50 at human ADAMTS-5 is 56 nM; at human TACE it was 1280 nM; at human MMP13 it was 1850 nM.

As for `COC(CC1(C)NC(=O)NC1=O)C(=O)N1CCN(c2cc(Cl)cc(Cl)c2)CC1` (stereo not drawn) [compound 439, 5-(3-(4-(3,5-dichlorophenyl)piperazin-1-yl)-2-methoxy-3-oxopropyl)-5-methylimidazolidine-2,4-dione], the figures for the IC50 at human ADAMTS-5, on human TACE and on human MMP13 were 43 nM, 787 nM and over 4000 nM, respectively.
